# Experimental data from US7718677B2, “Methods and compositions for reduction of side effects of therapeutic treatments” (priority 2007, dated 2010).
# Several values for one entry are separate records, joined by “and”; a condition that tells them apart may be missing. Equal values may be shown once.
# Tests used:
# [1] = test system: Squirrel (Saimiri sciureus) monkeys with nigrostriatal damage; assay: Levodopa-induced dyskinesias in MPTP-lesioned monkeys, nicotine in drinking solution before levodopa (Example 1); format: in vivo; conditions: scale 0-4, mean ± SE
# Protocol: Animals: Squirrel (Saimiri sciureus) monkeys (n=7) were purchased from World Wide Primates (Miami, Fla.). The animals weighed between 0.6-0.9 kg and were in mid to late adulthood as determined from their general appearance (dentition, fur, other). Female monkeys were used since older animals were available that may better model Parkinson's disease. The animals were placed in quarantine upon arrival, and maintained in a temperature-controlled room (27±3° C.) with a relative humidity>30%, under a 13/11-hour light/dark cycle. Monkey food chow and fruits/vegetables were provided once daily, with water provided ad libitum. The monkeys were housed in separate cages to allow for clear behavioral assessments. The animals were released from quarantine after 1 month and treatments initiated. All procedures conformed to the National Institutes of Health Guide for the Care and Use of Laboratory Animals and were approved by the Institutional Animal Care and Use Committee at the Parkinson's Institute.
# (§1) 1-Methyl-4-phenyl-1,2,3,6-tetrahydropyridine (MPTP) administration: Prior to lesioning, the animals were allowed to acclimate to the colony and rated for parkinsonism as described (Langston et al. Ann Neurol. 2000; 47:S79-89). All values were within the normal range. The monkeys were then injected subcutaneously with 2.0 mg/kg MPTP (Sigma, St-Louis, Mo.) dissolved in saline. The animals were rated for parkinsonism 3-4 weeks after MPTP administration. The disability scores ranged from 0 (normal) to 28 for a severely parkinsonian animal. Animals were assessed for 1) spatial hypokinesia (reduction in use of the available cage space), 2) body bradykinesia (increased slowness in body movement), 3) left and 4) right manual dexterity, 5) balance, 6) freezing and 7) action tremor. If they were not parkinsonian, MPTP injection (1.0-2.0 mg/kg) was repeated from 2-5 times for total doses of 3.5 to 13.5 mg/kg. Despite multiple MPTP dosing, two of the animals were not stably parkinsonian.
# Nicotine treatment: All monkeys (n=7) were then given a drinking solution for 3 weeks consisting of commercially available orange Gatorade® to mask nicotine's bitter taste (FIG. 1). The control group (n=4) was continued on Gatorade® only, while nicotine (free base) was added to the Gatorade of the treated group (n=3). Nicotine dosing was started at 50 μg/ml for 1 week, 150 μg/ml for 1 week, with the concentration increased by […] over the next few weeks, up to 650 μg/ml (FIG. 1).
# Levodopa administration: Monkeys were administered levodopa/carbidopa (5 mg/kg and 1.25 mg/kg, respectively), prepared by crushing a tablet of Sinemet® CR 100/25 (DuPont Pharma) and dissolving it in water. This dose of levodopa is within the range of that prescribed to Parkinson's disease patients. The monkeys were gavaged twice daily at 3.5-hour intervals for 8 weeks at a time using a 5-day-on/2-day-off schedule (Hsu et al., J Pharmacol Exp Ther. 2004; 311:770-777). During levodopa treatment, the monkeys were given fruits in the morning and food pellets 3.5 hours after the afternoon levodopa dose to optimize gastrointestinal absorption.
# Dyskinesias were rated from videotapes, as described (Hsu et al., J Pharmacol Exp Ther. 2004; 311:770-777). This included a one hour baseline period (no drugs) from ˜8:00-9:00 AM, followed by two 3.5-hour treatment periods with levodopa starting at ˜9:00 AM and ˜12:30 PM. Dyskinesias were rated for 2-minute periods at 30-minute intervals by two independent raters blinded to treatment. They were rated on a scale of 0 (no dyskinesias) to 4; a score of 1 was indicative of subtle dyskinesias that were not sustained; 2, mild dyskinesias that were sustained; 3, moderate dyskinesias that impaired the ability to remain stationary; 4, severe dyskinesias that were generalized and incapacitating.
# Data analyses: The levodopa treatment protocol used in the present study involved a 5-day-on/2-day-off schedule.
# [2] = test system: MPTP-lesioned squirrel monkeys; assay: Parkinsonism rating on or off levodopa in MPTP-lesioned monkeys; format: in vivo, Saimiri sciureus; set-up: key to Parkinson Ratings Expt 1 / Parkinson Ratings Expt 2 (crossover): disability score 0 = normal to 28 = severely parkinsonian
# Protocol: as §1
# Data analyses: The levodopa treatment protocol used in the present study involved a 5-day-on/2-day-off schedule. Parkinsonian ratings were done on Monday and Friday of each week, with the score averaged over the two days. Dyskinesias ratings were determined by averaging the scores on Wednesday and Thursday of each week. All values are expressed as the mean±SE of the indicated number of animals. Results were compared using paired t-tests or analysis of variance (ANOVA) followed by Bonferroni multiple comparison post hoc test, using Prism® program (GraphPad Software, Inc, San Diego, Calif.). A level of 0.05 was considered significant.
# White bars indicate no nicotine treatment and black bars indicate nicotine treatment. Parkinsonism was evaluated immediately before the afternoon L-dopa dose and 1.5 to 2 hours after L-dopa treatment, when a maximal antiparkinsonian effect is anticipated. Two of the seven animals in the study were not parkinsonian, and therefore were not included in this analysis. Error bars are the means±standard error of five animals before and after crossover of nicotine treatment. **p<0.01, as compared with the same group with no L-dopa treatment by a Mann-Withney test.
# [3] = general description; cited from earlier work
# [4] = on levodopa treatment, 1.5-2 hours after dosing, individual animals, scale 0-28
smiles,measurement,setting,value
"N[C@@H](Cc1ccc(O)c(O)c1)C(=O)O [levodopa, (−)-L-a-amino-b-(3,4-dihydroxybenzene) propanoic acid]",dyskinetic ratings 3 hours after the afternoon levodopa treatment,"[1]; week 2/3 of levodopa treatment, levodopa/carbidopa 5/1.25 mg/kg twice daily",0.5 ± 0.3
same,dyskinetic ratings 3 hours after the afternoon levodopa treatment,[1]; week 4 of levodopa treatment,1.0 ± 0.4
same,dyskinetic ratings 3 hours after the afternoon levodopa treatment,[1]; week 6 of levodopa treatment,1.1 ± 0.2
same,dyskinetic ratings 3 hours after the afternoon levodopa treatment,[1]; week 8 of levodopa treatment,0.9 ± 0.1
same,parkinsonism ratings,[2]; measured 1.5-2 hours after levodopa dosing,reduced
same,Parkinson Ratings Expt 1,[2]; [4],0.4 (2×) and 0.6
same,Parkinson Ratings Expt 2 (crossover),[2]; [4],1.8 and 0.9
same,Parkinson Ratings Mean ± SE (n),"[2]; on levodopa treatment, 1.5-2 hours after dosing, n=5",0.8 ± 0.3 (5)
same,solubility in water,[3],slightly soluble
